The record followed here is publication PMC8666671, “Fine-tuning spermidine binding modes in the putrescine binding protein PotF” (The Journal of Biological Chemistry, 2021).

Positions count from the first letter of the chain named. Where “and” joins values, the source holds several entries; their conditions need not be identical. Equal values may be shown once.

Assay type in all cases: binding
For one assay, the target named is T1, PotF/D–E39D–F88A–S247D (Escherichia coli, UniProt P31133, A182D/F276W/F88A/L348Q/S38T/S87Y).
T1 construct: without the N-terminal signal peptide; made in house; host or cells: E. coli BL21 (DE3)
T1 sequence (P31133 27-370 S38T/S87Y/F88A/A182D/F276W/L348Q): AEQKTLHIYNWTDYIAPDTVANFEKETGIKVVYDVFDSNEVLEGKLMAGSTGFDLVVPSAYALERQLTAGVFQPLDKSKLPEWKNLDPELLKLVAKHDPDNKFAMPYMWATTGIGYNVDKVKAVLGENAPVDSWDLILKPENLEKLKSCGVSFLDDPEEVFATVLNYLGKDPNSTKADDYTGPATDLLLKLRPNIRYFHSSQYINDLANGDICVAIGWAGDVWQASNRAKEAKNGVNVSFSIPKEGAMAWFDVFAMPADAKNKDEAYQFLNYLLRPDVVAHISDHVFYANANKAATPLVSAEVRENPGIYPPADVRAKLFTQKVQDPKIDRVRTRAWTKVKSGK
Kind of assay: ITC, PotF/D–E39D–F88A–S247D. To be noted: 293 K; for n: ITC binding stoichiometry; for ΔG / ΔH / −TΔS / Kd: ITC; for Kd: 50 mM Tris pH 8, 300 mM NaCl, biological triplicates. As to the method:
(§1) Ligands were always freshly prepared in the exact same buffer as was used for the size exclusion run. Samples were degassed, and temperature was equilibrated using a degassing station (TA Instruments). About 400 μl protein sample of different concentrations (Table S5) depending on affinity was transferred into the sample cell of a nanoITC (TA Instruments), and 50 μl of about tenfold concentrated ligand solution was loaded into the injection needle. Multiple injection measurements were carried out at 293 K, 300 rpm stirring rate, and 250 s spacings between each 2 μl injection. The heat quantity past injection was determined by integration of the measured peaks. Every protein–ligand combination was measured as biological triplicate. Subtraction of heat of dilution measurements, peak integration, and one site binding fits were done with NanoAnalyze (TA Instruments). Reported errors are the errors between fits of the measured triplicates.

The next assay has as its target T2, PotF_Abox-A182D (Escherichia coli, UniProt P31133, A182D/F276W).
T2 construct: without the N-terminal signal peptide; made in house; host or cells: E. coli BL21 (DE3)
T2 sequence (P31133 27-370 A182D/F276W): T1 sequence (P31133 27-370 S38T/S87Y/F88A/A182D/F276W/L348Q) with T12S, Y61S, A62F, Q322L
As to the kind of experiment: ITC, PotF_Abox-A182D (F276W, A182D). Conditions: for n: ITC binding stoichiometry; for n / Kd / ΔG / ΔH / −TΔS: 293 K, PotF_Abox-A182D; for Kd / ΔG / ΔH / −TΔS: ITC; for Kd: 50 mM Tris pH 8, 300 mM NaCl, biological triplicates. The protocol:
as §1

For the next assay, the target named is T3, PotF_Abox-S87Y (Escherichia coli, UniProt P31133, F276W/S87Y).
T3 construct: without the N-terminal signal peptide; made in house; host or cells: E. coli BL21 (DE3)
T3 sequence (P31133 27-370 S87Y/F276W): T1 sequence (P31133 27-370 S38T/S87Y/F88A/A182D/F276W/L348Q) with T12S, A62F, D156A, Q322L
As to the kind of experiment: ITC, PotF_Abox-S87Y (F276W, S87Y). Conditions: 293 K; for n: ITC binding stoichiometry; for ΔG / ΔH / −TΔS / Kd: ITC; for Kd: 50 mM Tris pH 8, 300 mM NaCl, biological triplicates. The protocol:
as §1

A further assay deals with T4, PotF_Dist (Escherichia coli, UniProt P31133, A182D/L348Q/S87Y).
T4 construct: without the N-terminal signal peptide; made in house; host or cells: E. coli BL21 (DE3)
T4 sequence (P31133 27-370 S87Y/A182D/L348Q): T1 sequence (P31133 27-370 S38T/S87Y/F88A/A182D/F276W/L348Q) with T12S, A62F, W250F
Kind of assay: ITC, PotF_Dist (S87Y, A182D, L348Q). Conditions: 293 K. The protocol: as §1

The target of another assay is T5, PotF_Abox-L348Q (Escherichia coli, UniProt P31133, F276W/L348Q).
T5 construct: without the N-terminal signal peptide; made in house; host or cells: E. coli BL21 (DE3)
T5 sequence (P31133 27-370 F276W/L348Q): T1 sequence (P31133 27-370 S38T/S87Y/F88A/A182D/F276W/L348Q) with T12S, Y61S, A62F, D156A
Kind of assay: ITC, PotF_Abox-L348Q (F276W, L348Q). To be noted: 293 K; for n: ITC binding stoichiometry; for ΔG / ΔH / −TΔS / Kd: ITC; for Kd: 50 mM Tris pH 8, 300 mM NaCl, biological triplicates. The protocol: as §1

The mark [1] stands for this setting: ITC, 50 mM Tris pH 8, 300 mM NaCl, biological triplicates.

`NCCCCN` [PUT, putrescine]: at PotF/D–E39D–F88A–S247D, the n worked out at 0.92 ± 0.04, the ΔG is -5.23 ± 0.02 kcal/mol, the ΔH is -5.21 ± 0.14 kcal/mol and the “−TΔS” value was -0.02 ± 0.15 kcal/mol. For the same compound, the dissociation constant Kd at PotF/D–E39D–F88A–S247D was determined as 126 ± 5.29 µM. Also, at PotF_Abox-A182D, the n is reported as 0.91 ± 0.01; the Kd was ~83 µM and 83.2 µM; the ΔG was -5.45 ± 0.02 kcal/mol; the ΔH was -9.79 ± 0.09 kcal/mol. The “−TΔS” value on PotF_Abox-A182D worked out at 4.33 ± 0.08 kcal/mol. At PotF_Abox-A182D (PotF_Abox-A182D compared with wildtype PotF), the “decrease of PUT affinity” value is reported as “around 1200 fold”. In addition, at PotF_Abox-S87Y, the n came to 0.92 ± 0.03, the ΔG is -6.47 ± 0.02 kcal/mol, the ΔH was -9.97 ± 0.20 kcal/mol and the “−TΔS” value is 3.50 ± 0.18 kcal/mol. Further, the Kd at PotF_Abox-S87Y was determined as 14.9 ± 0.54 µM. For the same compound, the KD result at PotF_Dist (setting [1]) is “abolishes association”. Also, on PotF_Abox-L348Q, the n came out at 0.94 ± 0.03, the ΔG was -7.48 ± 0.02 kcal/mol, the ΔH is -14.22 ± 0.75 kcal/mol and the “−TΔS” value was 6.74 ± 0.74 kcal/mol. For the same compound, the dissociation constant (Kd) at PotF_Abox-L348Q is ~3.3 µM and 2.66 µM.

Consider `NCCCCNCCCN` [SPD, spermidine], for which the n was found to be 0.91 ± 0.01 on PotF/D–E39D–F88A–S247D; 0.91 ± 0.02 at PotF_Abox-A182D; 0.97 ± 0.02 on PotF_Abox-S87Y; 0.91 ± 0.02 at PotF_Dist (ITC binding stoichiometry); 0.98 ± 0.01 on PotF_Abox-L348Q. The ΔG at PotF/D–E39D–F88A–S247D was -7.82 ± 0.06 kcal/mol; on PotF_Abox-A182D, -7.39 ± 0.11 kcal/mol; at PotF_Abox-S87Y, -6.30 ± 0.02 kcal/mol; on PotF_Dist (ITC), -5.48 ± 0.20 kcal/mol; at PotF_Abox-L348Q, -7.83 ± 0.68 kcal/mol. Besides, the ΔH on PotF/D–E39D–F88A–S247D was -4.75 ± 0.09 kcal/mol; on PotF_Abox-A182D, -4.37 ± 0.20 kcal/mol; at PotF_Abox-S87Y it was -5.66 ± 0.12 kcal/mol; at PotF_Dist (ITC), -1.83 ± 0.08 kcal/mol; at PotF_Abox-L348Q it was -7.72 ± 0.03 kcal/mol. The “−TΔS” value was -3.07 ± 0.14 kcal/mol on PotF/D–E39D–F88A–S247D; -3.02 ± 0.15 kcal/mol on PotF_Abox-A182D; -0.65 ± 0.12 kcal/mol on PotF_Abox-S87Y; -3.65 ± 0.28 kcal/mol on PotF_Dist (ITC); -0.11 ± 0.69 kcal/mol on PotF_Abox-L348Q. The Kd was 1.48 ± 0.14 µM on PotF/D–E39D–F88A–S247D; ~3.1 µM and 3.13 µM on PotF_Abox-A182D; 20 ± 0.7 µM on PotF_Abox-S87Y; 88.2 ± 33.1 µM at PotF_Dist (setting [1]); ~2.6 µM and 3.26 µM on PotF_Abox-L348Q. In addition, the KD entry on PotF_Dist (setting [1]) was “very low”.
